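48-hour exposure; five concentrations; linearly interpolated endpoints. The concentration for full growth arrest is given as TGI.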

Our source for the TGI values is PubChem BioAssay (NCI).

Experiment in all cases: DTP human tumour cell line panel, 48 h
Assay [1] has as its system T-47D breast.
The test system of assay [2] is DU-145 prostate.
Assay [3] deals with LOX IMVI melanoma.
Assay [4] concerns MCF7 breast.
The subject of assay [5] is IGROV1 ovarian.
The test system of assay [6] is RPMI-8226 leukemia.
The subject of assay [7] is SK-MEL-5 melanoma.
In assay [8] the test system is BT-549 breast.
The test system of assay [9] is SF-268 CNS.
Assay [10] deals with MDA-N.
Assay [11] has as its system NCI-H460 lung.
Assay [12] deals with ACHN renal.
The subject of assay [13] is M14 melanoma.
For assay [14], the system named is NCI-H23 lung.
Assay [15] concerns NCI-H226 lung.
In assay [16] the test system is TK-10 renal.
The subject of assay [17] is OVCAR-8 ovarian.
Assay [18] relates to HCT-15 colon.
The test system of assay [19] is HCC-2998 colon.

For the compound `c1ccc(/N=C2\c3ccccc3CN2c2ccccn2)nc1`, the TGI in assay [1] is 77.2 µM; in assay [2], over 100 µM; in assay [3] it was over 100 µM; in [4] it was over 100 µM; in [5], over 100 µM; in [6], over 100 µM. For the same compound, the total growth inhibition concentration (TGI) in assay [7], in [8], in assay [9], in assay [10], in assay [11] and in assay [12] was over 100 µM each time. The TGI in assay [13], in assay [14], in assay [15], in assay [16], in assay [17] and in assay [18] was over 100 µM each time. Besides, the TGI in [19] was over 100 µM.
`COC(=O)c1ccc(CCc2cc(O)c(Br)cc2O)cc1`: the TGI in assay [1] worked out at 51.1 µM; in [2], 27.5 µM; in assay [3], 27.2 µM; in assay [4], 28.1 µM; in assay [5], 28.5 µM; in assay [6], 92.2 µM. The concentration for total growth inhibition (TGI) in assay [7] is 23.7 µM; in assay [8], 15.8 µM; in assay [9], 34.1 µM; in assay [10], 30 µM; in assay [11], 33.3 µM; in assay [12], 25.9 µM. The concentration for total growth inhibition (TGI) came to 29 µM in assay [13]; 15.4 µM in [14]; 55.1 µM in assay [15]; 27.6 µM in [16]; 30.9 µM in assay [17]; 26.1 µM in assay [18]. The total growth inhibition concentration (TGI) in assay [19] is 32.9 µM.
As to `O=C(N/N=C\c1ccc([N+](=O)[O-])cc1)Nc1cccc2ccccc12`, the TGI in assay [1] was over 47.6 µM; in assay [2] it was over 100 µM; in [3] it was over 62.2 µM; in assay [4], over 80.9 µM; in [5], over 100 µM; in [6], over 100 µM. For the same compound, the concentration for total growth inhibition (TGI) in assay [7] was over 100 µM; in assay [8] it was 23.4 µM; in assay [9] it was over 55.5 µM; in assay [10] it was over 100 µM; in assay [11], over 51.9 µM; in assay [12] it was over 100 µM. Further, the TGI was over 100 µM in assay [13]; 61.9 µM in assay [14]; 61 µM in assay [15]; 63.6 µM in assay [16]; 34.7 µM in assay [17]; over 100 µM in assay [18]. In assay [19], this compound showed a TGI of over 100 µM.
`CC(=O)c1c(-c2ccccc2)c(-c2ccc(OCCN(C)C)cc2)n2ccccc12`: the concentration for total growth inhibition (TGI) in assay [1] is 37.8 µM; in [2], 31.8 µM; in [3], 29.1 µM; in [4] it was 32.3 µM; in assay [5] it was 33.3 µM; in assay [6], 60.2 µM. The TGI was 24.1 µM in assay [7]; 30.3 µM in assay [8]; 33.1 µM in assay [9]; 29.2 µM in assay [10]; 26 µM in assay [11]; 29.2 µM in assay [12]. Further, the TGI in [13] came to 30.8 µM; in assay [14], 36.7 µM; in [15], 38.3 µM; in assay [16] it was 32.1 µM; in assay [17], 31 µM; in assay [18], 22.7 µM. Besides, the TGI in assay [19] worked out at 27.7 µM.
For the compound `CC1=C(C(=O)Nc2ccccc2)C(c2ccc(C)o2)C(C#N)=C(SCc2ccccc2)N1` (stereo not drawn), the TGI in assay [1], in assay [2], in assay [3], in [4], in assay [5] and in assay [6] was over 100 µM throughout. Moreover, the TGI in assay [7] was over 100 µM; in assay [8], over 100 µM; in assay [9] it was over 100 µM; in assay [10] it was over 92.9 µM; in assay [11], over 100 µM; in [12], over 100 µM. Further, the TGI in assay [13], in [14], in [15], in [16], in assay [17] and in assay [18] was over 100 µM throughout. The compound further registered a concentration for total growth inhibition (TGI) in assay [19] of over 100 µM.
For `CC1(C)C(=O)C2(OS(=O)(=O)C(F)(F)F)CCC1C2` (stereo not drawn), the TGI in assay [1], in assay [2], in [3], in [4], in [5] and in [6] was over 100 µM in each case. For the same compound, the total growth inhibition concentration (TGI) in assay [7], in assay [8], in assay [9], in assay [10], in assay [11] and in assay [12] was over 100 µM each time. Besides, the TGI in assay [13], in assay [14], in [15], in [16], in [17] and in assay [18] was over 100 µM throughout. Also, the TGI in [19] is over 100 µM.
With `CN(C)CCNC1=CC(=O)c2c(O)ccc(O)c2C1=O`, the TGI was 25.5 µM in assay [1]; 26.7 µM in assay [2]; 12.7 µM in assay [3]; 7.27 µM in assay [4]; 16.7 µM in [5]; over 68.2 µM in [6]. Besides, the TGI is 3.28 µM in assay [7]; 31 µM in assay [8]; 28.1 µM in assay [9]; 3.55 µM in [10]; 14.6 µM in assay [11]; 25.8 µM in assay [12]. For the same compound, the TGI was 12.4 µM in [13]; 18.7 µM in assay [14]; 39.8 µM in assay [15]; 28 µM in assay [16]; 25.9 µM in assay [17]; over 40.8 µM in [18]. Also, in assay [19], the TGI came out at 13.5 µM.
